Our source for the EC50 values is patent US10344019B2 (priority 2010, dated 2019).

What all share (assay type): cell-based
The subject of test [1] is HCV 2a JFH-1 Rluc cells (dicistronic genotype 2a JFH-1 replicon, RLuc reporter). In words: microbe, parasite or virus in culture. The conditions noted are these: Hepatitis C virus, read-out: 2a JFH. Summed up: (§1)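 Replicons used: genotype 1b Con1, 1a H77, 2a JFH-1, and a 2a JFH-1 chimera with J6-strain NS5A (M31 present), all dicistronic.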
The subject of test [2] is HCV 1b RLuc cells (dicistronic genotype 1b Con1 replicon, RLuc reporter). In words: microbe, parasite or virus in culture. The conditions noted are these: Hepatitis C virus, read-out: 1b (nM). The gist of the method: as §1
The subject of test [3] is HCV 1a RLuc cells (dicistronic genotype 1a H77 replicon, RLuc reporter). In words: microbe, parasite or virus in culture. The conditions noted are these: Hepatitis C virus, read-out: 1a. The gist of the method: as §1
The test system of test [4] is HCV 2b Rluc cells (NS5A chimeric genotype 2a JFH-1 replicon with genotype 2b MD2b-1 NS5A gene, M31 present). In words: microbe, parasite or virus in culture. The following applies: Hepatitis C virus, read-out: 2b. The gist of the method: (§2)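 Replicon cells stably carrying the listed RLuc-encoding dicistronic replicons were seeded and treated with DMSO serial dilutions of compound (10 mM stocks) diluted into culture medium. After 72 h, cells were lysed and Renilla luciferase activity measured. EC50 was derived by non-linear regression.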

Test [5] deals with HCV 2a Rluc cells (NS5A chimeric genotype 2a JFH-1 replicon with genotype 2a J6 strain NS5A gene, M31 present). In words: HCV replicon reporter assay, genotype 2a J6 (M31 present). The conditions noted are these: Hepatitis C virus, read-out: 2a J6. On the procedure: Evaluation of cell-based anti-HCV activity: Antiviral potency (EC50) was determined using a Renilla luciferase (RLuc)-based HCV replicon reporter assay. To perform the assay for genotype 1 and 2a JFH-1, HCV 1b RLuc cells (harboring a dicistronic genotype 1b Con1 replicon that encodes a RLuc reporter), or HCV 1a RLuc cells (harboring a dicistronic genotype 1a H77 replicon that encodes a RLuc reporter), or HCV 2a JFH-1 Rluc cells (harboring a dicistronic genotype 2a JFH-1 replicon that encodes a RLuc reporter) were dispensed into 384-well plates. To perform the assay for genotype 2a (with M31 present) or 2b, HCV 2a Rluc or 2b Rluc cells (both with M31 present) harboring a dicistronic NS5A chimeric genotype 2a JFH-1 replicon that encodes a RLuc reporter and either genotype 2a J6 strain NS5A gene or genotype 2b MD2b-1 NS5A gene (based on Los Alamos HCV database isolates, both with M31 present) respectively, were dispensed into 384-well plates. To perform the assay for genotype 3 and 4, HCV 3a RLuc or 4a Rluc cells harboring a dicistronic NS5A chimeric genotype 1b Con1 replicon that encodes a RLuc reporter and either a consensus genotype 3a NS5A gene or genotype 4a NS5A gene (based on Los Alamos HCV database isolates) respectively, were dispensed into 384-well plates. Compounds were re-suspended in DMSO at a concentration of 10 mM and serially diluted in DMSO either manually or using an automated pipeting instrument. Serially diluted compounds were mixed with cell culture media and added to the seeded cells. […] 72 hours later, cells were lysed and Renilla luciferase activity quantified as recommended by the manufacturer (Promega-Madison, Wis.). Non-linear regression was performed to calculate EC50 values.
(In general: In antiviral work, replicon cells carry a viral genome segment that copies itself.)

Test [6] has as its system HCV 3a RLuc cells (NS5A chimeric genotype 1b Con1 replicon with consensus genotype 3a NS5A gene). In words: microbe, parasite or virus in culture. The following applies: Hepatitis C virus. The gist of the method: as §2
Test [7] deals with HCV 4a Rluc cells (NS5A chimeric genotype 1b Con1 replicon with genotype 4a NS5A gene). In words: microbe, parasite or virus in culture. The conditions noted are these: Hepatitis C virus, read-out: 4a. Summed up:
as §2

The mark [8] stands for this setting: genotype 2a JFH-1 RLuc replicon.
Where [9] appears, read: read-out: 3a, genotype 3a replicon.
The mark [10] stands for this setting: read-out: 3a, Table 2, genotype 3a NS5A chimeric replicon.
Setting [11] is: 72 h, Table 2, genotype 2a JFH-1 replicon, 72 hours.
[12] abbreviates: 72 h, Table 2, genotype 1a H77 replicon, 72 hours.

SMILES strings stand for the structures. Read-outs that look alike come from different tables or passages of the source.

Turning to `CC[C@H](C)[C@H](NC(=O)OC)C(=O)N1C[C@@H](COC)C[C@H]1c1ncc(-c2ccc3c(c2)COc2cc4c(ccc5nc([C@@H]6CC[C@H](C)N6C(=O)[C@@H](NC(=O)OC)C(C)C)[nH]c54)cc2-3)[nH]1` [Example 619], the EC50 in test [1] (setting [8]) is 1 to 999 pM; in test [2], 0.007 nM; in test [3] (genotype 1a H77 RLuc replicon), 1 to 999 pM; in test [4], 1 to 999 pM; in test [5], 1 to 999 pM.
As for `CC[C@H](C)[C@H](NC(=O)OC)C(=O)N1C[C@@H](C)C[C@H]1c1ncc(-c2ccc3c(c2)COc2cc4c(ccc5nc([C@@H]6C[C@H](COC)CN6C(=O)[C@@H](NC(=O)OC)[C@@H](C)OC)[nH]c54)cc2-3)[nH]1` [Example 641], the EC50 in test [1] (setting [8]) was 1 to 999 pM; in test [2], 0.03 nM; in test [3] (genotype 1a H77 RLuc replicon) it was 1 to 999 pM; in test [4], 1 to 999 pM; in test [5] it was 1 to 999 pM.
`COC[C@H]1C[C@@H](c2nc3ccc4cc5c(cc4c3[nH]2)OCc2cc(-c3cnc([C@@H]4CCCN4C(=O)[C@H](NC(=O)OC)c4ccccc4)[nH]3)ccc2-5)N(C(=O)[C@@H](NC(=O)OC)[C@@H](C)OC)C1` [Example 635]: the EC50 in test [1], in test [3] and in test [4] was 1 to 999 pM each time.
`CC[C@@H](C)[C@H](NC(=O)OC)C(=O)N1C[C@@H](COC)C[C@H]1c1ncc(-c2ccc3c(c2)COc2cc4c(ccc5nc([C@@H]6CC[C@H](C)N6C(=O)[C@@H](NC(=O)OC)C(C)C)[nH]c54)cc2-3)[nH]1` [Example 628]: the EC50 in test [1] (setting [8]), in test [3] (genotype 1a H77 RLuc replicon), in test [4] and in test [5] was 1 to 999 pM each time.
In the case of `CC[C@H](C)C(NC(=O)OC)C(=O)N1CCC[C@H]1c1ncc(-c2cc3c4c(c2)OCc2cc(-c5cnc([C@@H]6CCCN6C(=O)[C@@H](NC(=O)OC)[C@@H](C)CC)[nH]5)cc(c2-4)OC3)[nH]1` (stereo in doubt) [Example 346], the EC50 in test [6] (setting [9]) was 1 to 990 pM; in test [1], 1 to 999 pM; in test [2], 0.019 nM; in test [3], 1 to 999 pM; in test [4], 1000 to 44000 pM; in test [7], 1 to 990 pM.
Take `COC[C@H]1C[C@@H](c2ncc(-c3ccc4c(c3)COc3cc5c(ccc6nc([C@@H]7CCCN7C(=O)[C@@H](NC(=O)OC)C(C)C)[nH]c65)cc3-4)[nH]2)N(C(=O)[C@H](N)c2ccccc2)C1` [Example 607]: the EC50 in test [1] (setting [8]), in test [3] (genotype 1a H77 RLuc replicon), in test [4] and in test [5] was 1 to 999 pM throughout.
Consider `COC(=O)N[C@H](C(=O)N1[C@@H](C)CC[C@H]1c1ncc(-c2ccc3c(c2)COc2cc4c(ccc5nc([C@@H]6CCCN6C(=O)[C@@H](NC(=O)OC)C6CCOCC6)[nH]c54)cc2-3)[nH]1)C(C)C` [Example 602], for which the EC50 in test [1] (setting [8]), in test [3] (genotype 1a H77 RLuc replicon), in test [4] and in test [5] was 1 to 999 pM each time.
Take `COC(=O)N[C@H](C(=O)N1CCC[C@H]1c1ncc(-c2cc3c4c(c2)OCc2cc(-c5[nH]c([C@@H]6CCCN6C(=O)[C@@H](NC(=O)OC)C(C)C)nc5Cl)cc(c2-4)OC3)[nH]1)C(C)C` [Example 389]: the EC50 was 1 to 990 pM in test [6] (setting [9]); 1 to 999 pM in test [1] (genotype 2a JFH-1 replicon); 0.015 nM in test [2]; 1 to 999 pM in test [3] (genotype 1a replicon); 1 to 990 pM in test [7]; 1000 to 44000 pM in test [5].
Consider `COC(=O)NC(C(=O)N1CCC[C@H]1c1ncc(-c2ccc(-c3ccc4c(ccc5nc([C@@H]6[C@H]7CC[C@H](C7)N6C(=O)[C@@H](NC(=O)OC)C(C)C)[nH]c54)c3)cc2)[nH]1)[C@@H](C)OC` (some centres unmarked) [Example 68], for which the EC50 is 1 to 990 pM in test [6] (setting [10]); 1 to 999 pM in test [1] (setting [11]); 0.025 nM in test [2] (72 h); 1 to 999 pM in test [3] (setting [12]); 1 to 990 pM in test [7]; 1000 to 44000 pM in test [5].
With `COC(=O)N[C@H](C(=O)N1CCC[C@H]1c1nnc(-c2ccc(-c3ccc4c(ccc5nc([C@@H]6CCCN6C(=O)[C@@H](NC(=O)OC)C(C)C)[nH]c54)c3)cc2)[nH]1)C(C)C` [Example 407], the EC50 in test [6] (setting [9]) was 1000 to 4990 pM; in test [1] (genotype 2a JFH-1 replicon), 1 to 999 pM; in test [2] it was 0.048 nM; in test [3] (genotype 1a replicon) it was 1 to 999 pM; in test [7], 1 to 990 pM; in test [5], more than 44000 pM.
For the compound `COC(=O)N[C@H](C(=O)N1CCC[C@H]1c1nc2ccc3cc(-c4ccc(-c5[nH]c([C@@H]6[C@H]7CC[C@H](C7)N6C(=O)[C@H](NC(=O)OC)c6ccccc6)nc5Cl)cc4)ccc3c2[nH]1)C(C)C` [Example 402], the EC50 in test [6] (setting [9]) is 1 to 990 pM; in test [1] (genotype 2a JFH-1 replicon), 1 to 999 pM; in test [2] it was 0.015 nM; in test [3] (genotype 1a replicon) it was 1 to 999 pM; in test [7] it was 1 to 990 pM; in test [5], more than 44000 pM.
In the case of `COC(=O)N[C@H](C(=O)N1[C@@H]2CC[C@@H](C2)[C@H]1c1ncc(-c2ccc(-c3ccc4c(ccc5nc([C@@H]6CCCN6C(=O)[C@H](NC(=O)OC)c6ccccc6)[nH]c54)c3)cc2)[nH]1)C(C)C` [Example 315], the EC50 is 1 to 990 pM in test [6] (setting [9]); 1 to 999 pM in test [1] (genotype 2a JFH-1 replicon); 0.023 nM in test [2]; 1 to 999 pM in test [3] (genotype 1a replicon); 1 to 990 pM in test [7]; 1000 to 44000 pM in test [5].
On to `COC(=O)N[C@H](C(=O)N1[C@@H]2CC[C@@H](C2)[C@H]1c1nc2ccc3cc(-c4ccc(-c5cnc([C@@H]6C[C@H]7C[C@H]7N6C(=O)[C@@H](NC(=O)OC)C(C)C)[nH]5)c(F)c4)ccc3c2[nH]1)C(C)C` [Example 391], for which the EC50 was more than 5000 pM in test [6] (setting [9]); 1 to 999 pM in test [1] (genotype 2a JFH-1 replicon); 0.009 nM in test [2]; 1 to 999 pM in test [3] (genotype 1a replicon); 1 to 990 pM in test [7]; more than 44000 pM in test [5].
Consider `CC[C@@H](C)[C@H](NC(=O)OC)C(=O)N1C[C@@H](COC)C[C@H]1c1nc2ccc3cc4c(cc3c2[nH]1)OCc1cc(-c2cnc([C@@H]3CC[C@H](C)N3C(=O)[C@@H](NC(=O)OC)[C@H](C)CC)[nH]2)ccc1-4` [Example 643], for which the EC50 in test [1] (setting [8]), in test [3] (genotype 1a H77 RLuc replicon), in test [4] and in test [5] was 1 to 999 pM each time.
As for `COC(=O)N[C@H](C(=O)N1CCC[C@H]1c1ncc(-c2cc3c4c(c2)COc2cc(-c5cnc([C@@H]6CCCN6C(=O)[C@@H](NC(=O)OC)C(C)C)[nH]5)cc(c2-4)CC3)[nH]1)C(C)C` [Example 370], the EC50 in test [6] (setting [9]) was 1 to 990 pM; in test [1] (genotype 2a JFH-1 replicon), 1 to 999 pM; in test [2], 0.028 nM; in test [3] (genotype 1a replicon), 1 to 999 pM; in test [7], 1 to 990 pM; in test [5] it was more than 44000 pM.
`COC(=O)N[C@H](C(=O)N1[C@@H]2CC[C@@H](C2)[C@H]1c1ncc(-c2ccc(-c3ccc4c(ccc5nc([C@@H]6C[C@H]7C[C@H]7N6C(=O)[C@@H](NC(=O)OC)C(C)C)[nH]c54)c3)cc2)[nH]1)C(C)C` [Example 98]: the EC50 in test [6] (setting [10]) is 1000 to 4990 pM; in test [1] (setting [11]), 1 to 999 pM; in test [2] (72 h), 0.01 nM; in test [3] (setting [12]) it was 1 to 999 pM; in test [7], 1 to 990 pM; in test [5], more than 44000 pM.
